Series [1] has as its system human prostate cancer (PC3). As to the kind of experiment: Antitumor screening using MTT assay. The following applies: Homo sapiens; for viability at 1.56 µM / viability at 3.125 µM / viability at 6.25 µM / viability at 12.5 µM / viability at 25 µM / viability at 50 µM / viability at 100 µM: read-out: Average of Relative viability of cells (%); for IC50: read-out: In-vitro cytotoxicity IC50 (µM) PC3. On the technique in general: Formazan colour is commonly taken as a measure of viable cells.
Excerpt: (§2) Hepatocellular carcinoma (HePG2), mammary gland breast cancer (MCF-7), epithelioid carcinoma cervix cancer (Hela), and human prostate cancer were included on the panel (PC3). […] The cell lines were obtained from the American Type Culture Collection (ATCC) through VACSERA, a Cairo-based holding firm for biological goods and vaccines.
(§3) The panel consisted of hepatocellular carcinoma (HePG2), mammary gland breast cancer (MCF-7), epithelioid carcinoma cervix cancer (Hela) and human prostate cancer (PC3). Human lung fibroblast (WI38) was used to assay the cytotoxicity effect on normal cell. The cell lines were obtained from ATCC via Holding company for biological products and vaccines (VACSERA), Cairo, Egypt. The cytotoxic activity was defined as the concentration of the compound that causes 50% growth inhibition compared with the growth of untreated cells.

The subject of series [2] is Hepatocellular carcinoma (HePG2). As to the kind of experiment: Antitumor screening using MTT assay. In kind it is cell-based, human. The conditions noted are these: Homo sapiens; for viability at 1.56 µM: Conc. 1.56 µM; for viability at 1.56 µM / viability at 3.125 µM / viability at 6.25 µM / viability at 12.5 µM / viability at 25 µM / viability at 50 µM / viability at 100 µM: read-out: Average of Relative viability of cells (%); for viability at 3.125 µM: Conc. 3.125 µM; for viability at 6.25 µM: Conc. 6.25 µM; for viability at 12.5 µM: Conc. 12.5 µM; for viability at 25 µM: Conc. 25 µM; for viability at 50 µM: Conc. 50 µM; for viability at 100 µM: Conc. 100 µM; for IC50: mean ± SD, n = 3, read-out: In-vitro cytotoxicity IC50 (µM) HePG2.
Excerpt: as §2, §3

Series [3] relates to epithelioid carcinoma cervix cancer (Hela). As to the kind of experiment: Antitumor screening using MTT assay. The following applies: Homo sapiens, HeLa; for viability at 1.56 µM / viability at 3.125 µM / viability at 6.25 µM / viability at 12.5 µM / viability at 25 µM / viability at 50 µM / viability at 100 µM: read-out: Average of Relative viability of cells (%); for IC50: read-out: In-vitro cytotoxicity IC50 (µM) Hela.
Excerpt: as §2, §3

Series [4] relates to mammary gland breast cancer (MCF-7). Kind of series: Antitumor screening using MTT assay. The conditions noted are these: Homo sapiens; for viability at 1.56 µM / viability at 3.125 µM / viability at 6.25 µM / viability at 12.5 µM / viability at 25 µM / viability at 50 µM / viability at 100 µM: MCF7, read-out: Average of Relative viability of cells (%); for IC50: MCF7, read-out: In-vitro cytotoxicity IC50 (µM) MCF-7.
Excerpt: as §2, §3

The test system of series [5] is human lung fibroblast (WI38). Kind of series: In vitro cytotoxicity against human normal cell line (MTT). In kind it is cell-based. The conditions noted are these: Homo sapiens, WI-38, human normal cell line WI38; mean ± SD, n = 3. An excerpt: (§1) The anticancer agent's selectivity for cancer cells is a critical consideration for any researcher, as it can decrease the molecule's adverse effects on normal human cells.

Assay in series [6]: as above
In kind it is cell-based. The conditions noted are these: human, WI38 human lung fibroblast cells (normal cell line), WI38, read-out: Average of Relative viability of cells (%); for viability at 1.56 µM: Conc. 1.56 µM; for viability at 3.125 µM: Conc. 3.125 µM; for viability at 6.25 µM: Conc. 6.25 µM; for viability at 12.5 µM: Conc. 12.5 µM; for viability at 25 µM: Conc. 25 µM; for viability at 50 µM: Conc. 50 µM; for viability at 100 µM: Conc. 100 µM.
Excerpt: as §1

The next series has as its target human PI3Kα (Homo sapiens, UniProt P42336). As to the kind of experiment: Human PI3Kα enzyme inhibition assay (ELISA).

Data on four compounds can be found in publication PMC9556824, “Design, synthesis and computational study of new benzofuran hybrids as dual PI3K/VEGFR2 inhibitors targeting cancer” (Scientific Reports, 2022).

The structures appear in SMILES notation.

Sequence of human PI3Kα (P42336 whole entry): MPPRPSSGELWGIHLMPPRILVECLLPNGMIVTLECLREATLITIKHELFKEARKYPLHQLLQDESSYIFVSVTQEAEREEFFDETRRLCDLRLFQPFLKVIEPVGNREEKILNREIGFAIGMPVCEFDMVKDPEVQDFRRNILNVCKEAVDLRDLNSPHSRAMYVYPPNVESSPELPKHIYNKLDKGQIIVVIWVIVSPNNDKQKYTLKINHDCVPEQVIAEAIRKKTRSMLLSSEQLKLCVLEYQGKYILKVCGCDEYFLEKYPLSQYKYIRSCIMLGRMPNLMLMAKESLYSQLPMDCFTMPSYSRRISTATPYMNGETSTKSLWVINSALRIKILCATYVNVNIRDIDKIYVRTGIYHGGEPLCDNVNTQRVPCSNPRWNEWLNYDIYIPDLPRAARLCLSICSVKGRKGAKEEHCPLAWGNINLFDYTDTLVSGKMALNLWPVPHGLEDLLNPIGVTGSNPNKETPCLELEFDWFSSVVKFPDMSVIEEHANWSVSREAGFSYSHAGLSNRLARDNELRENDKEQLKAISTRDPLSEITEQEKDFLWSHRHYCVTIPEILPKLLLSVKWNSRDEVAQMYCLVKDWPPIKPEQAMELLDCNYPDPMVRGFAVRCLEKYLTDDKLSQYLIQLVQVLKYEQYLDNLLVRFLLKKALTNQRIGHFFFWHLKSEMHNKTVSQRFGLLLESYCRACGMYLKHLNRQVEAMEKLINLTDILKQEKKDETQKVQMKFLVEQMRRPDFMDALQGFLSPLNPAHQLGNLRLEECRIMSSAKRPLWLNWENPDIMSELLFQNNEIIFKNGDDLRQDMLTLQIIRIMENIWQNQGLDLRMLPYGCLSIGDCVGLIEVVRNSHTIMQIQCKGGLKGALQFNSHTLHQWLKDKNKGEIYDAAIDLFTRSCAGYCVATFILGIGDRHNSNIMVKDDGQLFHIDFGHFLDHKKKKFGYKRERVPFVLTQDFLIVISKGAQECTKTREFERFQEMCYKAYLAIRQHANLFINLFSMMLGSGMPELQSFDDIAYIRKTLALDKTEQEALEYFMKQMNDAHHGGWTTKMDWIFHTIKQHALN
Sequence of human PI3Kα (P27986 whole entry partner): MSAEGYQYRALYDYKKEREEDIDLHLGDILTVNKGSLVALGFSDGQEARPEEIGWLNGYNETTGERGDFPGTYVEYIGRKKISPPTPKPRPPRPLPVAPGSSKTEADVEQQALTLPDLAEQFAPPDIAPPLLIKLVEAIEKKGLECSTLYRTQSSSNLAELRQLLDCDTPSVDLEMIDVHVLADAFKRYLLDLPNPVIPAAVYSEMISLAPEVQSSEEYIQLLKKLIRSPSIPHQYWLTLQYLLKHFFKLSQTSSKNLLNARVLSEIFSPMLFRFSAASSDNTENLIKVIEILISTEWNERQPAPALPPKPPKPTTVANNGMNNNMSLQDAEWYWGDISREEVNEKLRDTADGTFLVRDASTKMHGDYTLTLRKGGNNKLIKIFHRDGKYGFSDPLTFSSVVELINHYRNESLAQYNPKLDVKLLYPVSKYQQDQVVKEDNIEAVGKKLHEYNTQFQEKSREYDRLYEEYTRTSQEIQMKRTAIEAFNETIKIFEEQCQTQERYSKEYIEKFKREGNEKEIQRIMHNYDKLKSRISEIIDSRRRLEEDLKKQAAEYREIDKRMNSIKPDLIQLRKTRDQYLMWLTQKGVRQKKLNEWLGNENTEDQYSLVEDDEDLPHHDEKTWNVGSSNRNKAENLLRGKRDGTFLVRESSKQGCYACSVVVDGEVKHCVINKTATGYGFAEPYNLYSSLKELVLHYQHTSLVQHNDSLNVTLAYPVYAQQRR
Experimental for human PI3Kα: PI3Kα and VEGFR-2 activity were verified by enzyme-linked immunosorbent assay (ELISA) assay technique. […] Then, the mean absorbance of each group of standard and tested compounds was determined. The standard curve was drawn on log–log paper with the absorbance on the Y-axis and the standard concentration on the X-axis.

As a reminder, the melting point is the temperature, or range, at which the solid turns liquid. One may read the viability as a per cent measure of how many cells are alive, often set against a control. Usually IC50 stands for the concentration that gives 50% inhibition. `O=C(/C=C/N1CCCCC1)c1cc2ccccc2o1` [Compound 5, (E)-1-(benzofuran-2-yl)-3-(piperidin-1-yl)prop-2-en-1-one] yielded a melting point of 136 to 138 °C. Moreover, in series [1], the viability at 1.56 µM was 100%, the viability at 3.125 µM was 100%, the viability at 6.25 µM amounted to 92.7% and the viability at 12.5 µM turned out to be 67.2%. Further, in series [1], the viability at 25 µM is 58.1%, the viability at 50 µM worked out at 47.8%, the viability at 100 µM was determined as 32.9% and the IC50 stood at 41.5 ± 2.6 µM. For the same compound, in series [2], the viability at 1.56 µM was 100%, the viability at 3.125 µM was determined as 76.8%, the viability at 6.25 µM worked out at 65% and the viability at 12.5 µM came out at 42.3%. In addition, in series [2], the viability at 25 µM stood at 37.2%, the viability at 50 µM is 24%, the viability at 100 µM is 15.3% and the IC50 was 12.6 ± 1 µM. In series [3], the viability at 1.56 µM worked out at 100%, the viability at 3.125 µM was found to be 96.6%, the viability at 6.25 µM worked out at 79.3% and the viability at 12.5 µM was found to be 62.9%. Besides, in series [3], the viability at 25 µM is 51.4%, the viability at 50 µM was 38.1%, the viability at 100 µM came out at 26.3% and the IC50 turned out to be 28.3 ± 2.2 µM. Further, in series [4], the viability at 1.56 µM was 100%, the viability at 3.125 µM was determined as 96.2%, the viability at 6.25 µM was found to be 72.1% and the viability at 12.5 µM came out at 54.9%. In series [4], the viability at 25 µM was found to be 41.8%, the viability at 50 µM was determined as 32.5%, the viability at 100 µM came to 20.4% and the IC50 was 19.9 ± 1.5 µM. The same compound had an IC50 in series [5] of 64 ± 3.1 µM. In series [6], the viability at 1.56 µM came to 100%, the viability at 3.125 µM was found to be 100%, the viability at 6.25 µM is 100% and the viability at 12.5 µM is 91.8%. Also, in series [6], the viability at 25 µM came to 72.3%, the viability at 50 µM was found to be 57.1% and the viability at 100 µM turned out to be 38.2%.
`C/C(=N\N=C\c1ccc(O)cc1)c1cc2ccccc2o1` [Compound 11, (E)-1-[1-(benzofuran-2-yl)ethylidene]-2-((E)-4-hydroxybenzylidene)hydrazine] had a melting point of 154 to 156 °C. The IC50 in series [1] was greater than 100 µM. The IC50 in series [2] is 84.9 ± 3.2 µM. In series [3], the IC50 is 89.3 ± 3.2 µM. For the same compound, the IC50 in series [4] is greater than 100 µM. In series [5], this compound displayed a 50% inhibitory concentration (IC50) of 43.2 ± 2.9 µM.
The compound `C\C(=N/N=C/C=C/c1ccccc1)c1cc2ccccc2o1` [Compound 12] registered a melting point of 141 to 143 °C. In series [1], the viability at 1.56 µM was found to be 100%, the viability at 3.125 µM stood at 100%, the viability at 6.25 µM was 98.4% and the viability at 12.5 µM turned out to be 86.6%. In series [1], the viability at 25 µM is 71.7%, the viability at 50 µM is 55%, the viability at 100 µM stood at 47.3% and the IC50 came to 74.4 ± 3.9 µM. Further, in series [2], the viability at 1.56 µM was 100%, the viability at 3.125 µM was determined as 100%, the viability at 6.25 µM came to 100% and the viability at 12.5 µM amounted to 91.3%. In series [2], the viability at 25 µM was 70.5%, the viability at 50 µM was 54%, the viability at 100 µM came to 39.4% and the IC50 came to 62 ± 3.2 µM. For the same compound, in series [3], the viability at 1.56 µM is 100%, the viability at 3.125 µM was 100%, the viability at 6.25 µM was determined as 86.6% and the viability at 12.5 µM is 72.3%. Besides, in series [3], the viability at 25 µM was 59.2%, the viability at 50 µM came to 41.8%, the viability at 100 µM came to 34.1% and the IC50 is 39.8 ± 2.7 µM. In series [4], the viability at 1.56 µM was 100%, the viability at 3.125 µM turned out to be 100%, the viability at 6.25 µM stood at 94.7% and the viability at 12.5 µM came to 81.8%. For the same compound, in series [4], the viability at 25 µM was 70.2%, the viability at 50 µM came out at 57.1%, the viability at 100 µM came out at 43.2% and the IC50 was 68.4 ± 3.6 µM. In series [5], this compound returned an IC50 of 56.5 ± 3.2 µM. In addition, in series [6], the viability at 1.56 µM worked out at 100%, the viability at 3.125 µM was 100%, the viability at 6.25 µM is 91.3% and the viability at 12.5 µM stood at 78.1%. Moreover, in series [6], the viability at 25 µM came to 61.9%, the viability at 50 µM amounted to 52.5% and the viability at 100 µM worked out at 41%.
On to `O=c1cc(N2CCOCC2)oc2c(-c3ccccc3)cccc12` [LY294002, reference compound], for which the PI3K-α %inh on human PI3Kα (conc 0.1 (unit not given)) stood at 8.66%; on human PI3Kα (conc 1 (unit not given)), 21.2%; on human PI3Kα (conc 10 (unit not given)) it was 54.8%; on human PI3Kα (conc 100 (unit not given)) it was 76.7%.
